Key:
Assay type in all cases: in vivo
Set-up in all cases: key: compounds are considered to be active when, at a concentration of 500 ppm or less, their action on the harmful organisms is 50% or more
[1] = tested on: L2 larvae of the Egyptian cotton leaf worm (Spodoptera littoralis); assay: Example D: L2 larvae of Egyptian cotton leaf worm, Petri dish with culture medium; conditions: 500 ppm or less, after 6 days
Experimental: (§1) In Examples A to L below, compounds are considered to be active when, at a concentration of 500 ppm or less, their action on the harmful organisms is 50% or more.
A Petri dish whose bottom was covered with filter paper and which contained about 5 ml of culture medium was prepared. Five L2 larvae of the Egyptian cotton leaf worm (Spodoptera littoralis) were counted into small beakers. 200 μl of an aqueous solution of the formulated preparation to be examined were pipetted into the beaker. The treated larvae were then poured into the Petri dish, and a further 200 μl of the aqueous solution were distributed over the culture medium. The Petri dish was closed and then stored at about 25° C. in a climatized chamber. After 6 days of storage, the effect of the preparation on the larvae (mortality) was determined. The following examples were active: Nos. 27, 28, 29, 39, 43, 45, 59.

[2] = tested on: L1 larvae of the codling moth (Carpocapsa pomonella); assay: Example J: codling moth L1 larvae on treated culture medium; conditions: 500 ppm or less, after 14 days
Experimental: as §1
Culture medium was mixed with an aqueous solution of the formulated preparation to be examined and populated with 10 L1 larvae of the codling moth (Carpocapsa pomonella). After 14 days of storage at about 23° C., the effect of the preparation on the larvae (mortality) was determined. The following examples were active: Nos. 28, 59.

[3] = tested on: eggs of the American tobacco budworm (Heliothis virescens); assay: Example C: eggs of American tobacco budworm, Petri dish with culture medium; conditions: 500 ppm or less; eggs dipped 5 seconds, 200 μl on culture medium; after 6 days
Experimental: as §1
A Petri dish whose bottom was covered with filter paper and which contained about 5 ml of culture medium was prepared. Pieces of filter paper with about 30, one-day-old eggs of the American tobacco budworm (Heliothis virescens) were dipped for 5 seconds into an aqueous solution of the formulated preparation to be examined and subsequently placed in a Petri dish. A further 200 μl of the aqueous solution were spread over the culture medium. The Petri dish was closed and then stored at about 25° C. in a climatized chamber. After 6 days of storage, the effect of the preparation on the eggs and any larvae which may have hatched from these (mortality) was determined. The following examples were active: Nos. 6, 27, 28, 29, 31, 35, 39, 43, 45, 59, 97, 226, 227, 228, 229, 351, 356, 357, 592, 593, 595, 949, 1001, 1126, 1129, 1132.

[4] = tested on: larvae of the diamondback moth (Plutella xylostella); assay: Example L: diamondback moth larvae on sprayed cabbage leaf; conditions: 500 ppm or less, after 4 days
Experimental: as §1
A cabbage leaf was sprayed with an aqueous solution of the formulated preparation to be examined. After drying, the treated leaf was populated with larvae of the diamondback moth (Plutella xylostella). After 4 days of storage at about 25° C., the effect of the preparation on the larvae (mortality) was determined. The following examples were active: Nos. 27, 28, 45.

[5] = tested on: L2 larvae of the sugar beet armyworm (Spodoptera exigua); assay: Example I: sugar beet armyworm L2 larvae on sprayed cotton leaves; conditions: 500 ppm or less, after 4 days
Experimental: as §1
Cotton plants were sprayed with an aqueous solution of the formulated preparation to be examined. After drying, leaves were cut off, placed into a Petri dish and populated with 5 L2 larvae of the sugar beet armyworm (Spodoptera exigua). After 4 days of storage at about 23° C., the effect of the preparation on the larvae (mortality) was determined. The following examples were active: Nos. 27, 28, 45, 59.

CC(=NO)c1cc(OCC=C(Cl)Cl)cc(Cl)c1OCCCOc1ccc(C(F)(F)F)cn1 [compound 28]
active: effect of the preparation on the larvae (mortality) [1] | effect of the preparation on the larvae (mortality) [2] | effect of the preparation on the eggs and any larvae hatched (mortality) [3] | effect of the preparation on the larvae (mortality) [4] | effect of the preparation on the larvae (mortality) [5]

— patent US20040029886A1, “Dihalopropene compounds, processes for their preparation, compositions comprising them and their use as pesticides” (priority 2001, published 2004)
